Experiments:
Format in all cases: cell-based
SW480 colon cancer cells = assay: Cell viability assay (CellTiter-Blue) in SW480 colon cancer cells; conditions: Homo sapiens; for EC50: 96 h, four days, CellTiter-Blue; for inhibition at 10 µM: given for EC50 >10 μM, read-out: percent inhibition at 10 μM
Protocol: Representative compounds were screened using the following assay procedure to assess the effect on cell viability as described below.
Each compound was dissolved in DMSO as a 10 mM stock and used to prepare compound source plates. Serial dilution (1:3, 8-point dose-response curves from 10 μM to 0.0045 μM) and compound transfer was performed using the ECHO 550 (Labcyte, Sunnyvale, Calif.) into 96-well clear bottom, black-walled plates (Corning-Costar).
Approximately 2×10^3 SW480 colon cancer cells were seeded into each well and allowed to incubate in the presence or absence of compound for four days at 37° C./5% CO2. Eight replicates of DMSO-treated cells served as controls and cells treated with compound were performed in duplicate.
After incubation, 20 μL of CellTiter-Blue (Promega) was added to each well allowed to incubate for approximately 3 hours. This reagent was a buffered solution which contains resazurin, metabolically active cells were able to reduce rezarurin (blue) into resorufin (pink) which was highly fluorescent. This measured fluorescence was used as a readout for cell viability.
After incubation, the plates were read at Ex 560 nm Em 590 nm (Cytation 3, BioTek). Dose-response curves were generated and EC50 concentration values were calculated using non-linear regression curve fit in the GraphPad Prism (San Diego, Calif.) or Dotmatics' Studies Software (Bishops Stortford, UK). For EC50 of >10 μM, the percent inhibition at 10 μM is provided.

[1] = tested on: Wnt activity (Sp5-Luc reporter, SW480 colon carcinoma cells); assay: Sp5-Luc reporter gene screening assay for Wnt activity in SW480 cells; conditions: Homo sapiens; for EC50: luminescence, overnight incubation; for inhibition at 10 µM: given for EC50 >10 μM, read-out: percent inhibition at 10 μM
Source text: The screening assay for Wnt activity is described as follows. Reporter cell lines can be generated by stably transducing cancer cell lines (e.g., colon cancer) or primary cells (e.g., IEC-6 intestinal cells) with a lentiviral construct that includes a Wnt-responsive promoter driving expression of the firefly luciferase gene.
SW480 colon carcinoma cells were transduced with a lentiviral vector expressing luciferase with a human Sp5 promoter consisting of a sequence of eight TCF/LEF binding sites. SW480 cells stably expressing the Sp5-Luc reporter gene and a hygromycin resistance gene were selected by treatment with 150 μg/mL of hygromycin for 7 days. These stably transduced SW480 cells were expanded in cell culture and used for all further screening activities. Each compound was dissolved in DMSO as a 10 mM stock and used to prepare compound source plates. Serial dilution (1:3, 10-point dose-response curves starting from 10 μM) and compound transfer was performed using the ECHO 550 (Labcyte, Sunnyvale, Calif.) into 384-well white solid bottom assay plates (Greiner Bio-One) with appropriate DMSO backfill for a final DMSO concentration of 0.1%. For Sp5-Luc reporter gene assays, the cells were plated at 4,000 cells/well in 384-well plates with medium containing 1% fetal bovine serum and incubated overnight at 37° C. and 5% CO2. Following incubation, 20 μl of BrightGlo luminescence reagent (Promega) was added to each well of the 384-well assay plates. The plates were placed on an orbital shaker for 2 min and then luminescence was quantified using the Envision (Perkin Elmer) plate reader. Readings were normalized to DMSO only treated cells, and normalized activities were utilized for EC50 calculations using the dose-response log (inhibitor) vs. response-variable slope (four parameters) nonlinear regression feature available in GraphPad Prism 5.0 (or Dotmatics). For EC50 of >10 μM, the percent inhibition at 10 μM is provided.

[2] = tested on: primary human mesenchymal stem cells (hMSCs); assay: Induction of chondrogenesis in primary human mesenchymal stem cells (nodule count); conditions: 144 h, 6 days; for Emax: TGF-β3 10 ng/mL as positive control, read-out: Max. Activity as % TGF-β3 activity; for EC50: concentration required to induce 50% levels of chondrogenesis vs TGF-β3, read-out: Conc (nM) of 50% TGF-β3 activity
Protocol: Representative compounds were screened using primary human mesenchymal stem cells (hMSCs) to determine their ability to induce chondrogenesis (process by which cartilage is developed).
Human Mesenchymal Stem Cell Culture: Primary human mesenchymal stem cells (hMSCs) were purchased from Lonza (Walkersville, Md.) and expanded in Mesenchymal Stem Cell Growth Media (Lonza). Cells between passage 3 and 6 were used for the experiments.
Compound Screening: Each compound was dissolved in DMSO as a 10 mM stock and used to prepare compound source plates. Serial dilution (1:3, 6-point dose-response curves from 2700 nM to 10 nM) and compound transfer was performed using the ECHO 550 (Labcyte, Sunnyvale, Calif.) into 96-well clear bottom assay plates (Greiner Bio-One) with appropriate DMSO backfill for a final DMSO concentration of 0.03%. hMSCs were plated at 20,000 cells/well in 250 μL/well Incomplete Chondrogenic Induction Medium (Lonza; DMEM, dexamethasone, ascorbate, insulin-transferrin-selenium [ITS supplement], gentamycin-amphotericin [GA-1000], sodium pyruvate, proline and L-glutamine). TGF-β3 (10 ng/mL) was used as a positive control for differentiation while negative control wells were treated with 75 nL DMSO for normalization and calculating EC50 values. Cells were incubated at 37° C. and 5% CO2 for 6 days. To image chondrogenic nodules, the cells were fixed using 4% formaldehyde (Electron Microscopy Sciences), and stained with 2 μg/mL Rhodamine B (Sigma-Aldrich) and 20 μM Nile Red (Sigma-Aldrich) [Johnson K., et. al, A Stem Cell-Based Approach to Cartilage Repair, Science, (2012), 336(6082), 717-721]. The nodules imaged (4 images per well at 4× magnification) by excitation at 531 nm and emission at 625 nm and quantified using the CellInsight CX5 (Thermo Scientific). Number of nodules in each well was normalized to the average of 3 DMSO treated wells on the same plate using Excel (Microsoft Inc.). The normalized averages (fold change over DMSO) of 3 replicate wells for each compound concentration were calculated. Due to solubility limitations of some of the compounds, curve fitting was incomplete leading to inaccurate EC50 determinations.
Using TGF-β3 as a positive control, the concentration of representative compounds required to induce 50% levels of chondrogenesis is reported. In addition, the maximum activity of each compound and the respective dose that each compound reached maximum chondrogenesis activity is reported.

| SMILES | EC50 (SW480 colon cancer cells) [nM] | EC50 [1] [nM] | EC50 [2] [nM] | inhibition at 10 µM (SW480 colon cancer cells) [%] | Emax [2] [%] | inhibition at 10 µM [1] [%] |
| --- | --- | --- | --- | --- | --- | --- |
| Fc1cccc(-c2nccc3[nH]c(-c4n[nH]c5ccc(-c6cccnc6)nc45)cc23)c1 [Compound 4, 3-(4-(3-Fluorophenyl)-1H-pyrrolo[3,2-c]pyridin-2-yl)-5-(pyridin-3-yl)-1H-pyrazolo[4,3-b]pyridine] | > 10000 | 1490 | – | 25 | 45 | – |
| CN(C)c1cncc(-c2ccc3[nH]nc(-c4cc5c(-c6cccc(F)c6)nccc5[nH]4)c3n2)c1 [Compound 7, 5-(3-(4-(3-Fluorophenyl)-1H-pyrrolo[3,2-c]pyridin-2-yl)-1H-pyrazolo[4,3-b]pyridin-5-yl)-N,N-dimethylpyridin-3-amine] | 483 | 746 | 2700 | – | 153 | – |
| Fc1cccc(-c2nccc3[nH]c(-c4n[nH]c5ccc(-c6cncc(CN7CCCCC7)c6)nc45)cc23)c1 [Compound 15, 3-(4-(3-Fluorophenyl)-1H-pyrrolo[3,2-c]pyridin-2-yl)-5-(5-(piperidin-1-ylmethyl)pyridin-3-yl)-1H-pyrazolo[4,3-b]pyridine] | 1140 | 3750 | – | – | 48 | – |
| O=C(Nc1cncc(-c2ccc3[nH]nc(-c4cc5c(-c6cccc(F)c6)nccc5[nH]4)c3n2)c1)C1CCCCC1 [Compound 23, N-(5-(3-(4-(3-Fluorophenyl)-1H-pyrrolo[3,2-c]pyridin-2-yl)-1H-pyrazolo [4,3-b]pyridin-5-yl)pyridin-3-yl)cyclohexanecarboxamide] | 505 | 1280 | – | – | – | – |
| Cc1ccncc1-c1ccc2[nH]nc(-c3cc4c(-c5ccc(F)cc5)nccc4[nH]3)c2n1 [Compound 33, 3-(4-(4-Fluorophenyl)-1H-pyrrolo[3,2-c]pyridin-2-yl)-5-(4-methylpyridin-3-yl)-1H-pyrazolo[4,3-b]pyridine] | 4470 | > 10000 | – | – | – | 37.3 |
| O=C(Nc1cncc(-c2ccc3[nH]nc(-c4cc5c(-c6ccc(F)cc6)nccc5[nH]4)c3n2)c1)c1ccccc1 [Compound 39, N-(5-(3-(4-(4-Fluorophenyl)-1H-pyrrolo[3,2-c]pyridin-2-yl)-1H-pyrazolo [4,3-b]pyridin-5-yl)pyridin-3-yl)benzamide] | 177 | 692 | – | – | – | – |
| Fc1ccc(-c2nccc3[nH]c(-c4n[nH]c5ccc(-c6cncc(CN7CCC(F)(F)C7)c6)nc45)cc23)cc1 [Compound 54, 5-(5-((3,3-Difluoropyrrolidin-1-yl)methyl)pyridin-3-yl)-3-(4-(4-fluorophenyl)-1H-pyrrolo[3,2-c]pyridin-2-yl)-1H-pyrazolo[4,3-b]pyridine] | 516 | 599 | 900 | – | 106 | – |
| CC(C)CC(=O)Nc1cncc(-c2ccc3[nH]nc(-c4cc5c(-c6ccccc6F)nccc5[nH]4)c3n2)c1 [Compound 58, N-(5-(3-(4-(2-Fluorophenyl)-1H-pyrrolo[3,2-c]pyridin-2-yl)-1H-pyrazolo [4,3-b]pyridin-5-yl)pyridin-3-yl)-3-methylbutanamide] | 370 | 649 | – | – | 36 | – |
| CN(C)Cc1cncc(-c2ccc3[nH]nc(-c4cc5c(-c6ccccc6F)nccc5[nH]4)c3n2)c1 [Compound 69, 1-(5-(3-(4-(2-Fluorophenyl)-1H-pyrrolo[3,2-c]pyridin-2-yl)-1H-pyrazolo [4,3-b]pyridin-5-yl)pyridin-3-yl)-N,N-dimethylmethanamine] | 596 | 1210 | – | – | 7 | – |
| Fc1ccccc1-c1nccc2[nH]c(-c3n[nH]c4ccc(-c5cncnc5)nc34)cc12 [Compound 83, 3-(4-(2-Fluorophenyl)-1H-pyrrolo[3,2-c]pyridin-2-yl)-5-(pyrimidin-5-yl)-1H-pyrazolo[4,3-b]pyridine] | > 10000 | > 10000 | – | 27.9 | – | 2.1 |

The next lines start with results.

| EC50 (SW480 colon cancer cells) [nM] | EC50 [1] [nM] | EC50 [2] [nM] | SMILES | inhibition at 10 µM (SW480 colon cancer cells) [%] | Emax [2] [%] | inhibition at 10 µM [1] [%] |
| --- | --- | --- | --- | --- | --- | --- |
| > 10000 | 452 | – | Nc1cncc(-c2ccc3[nH]nc(-c4cc5c(-c6ccncc6)nccc5[nH]4)c3n2)c1 [Compound 115, 5-(3-(4-(Pyridin-4-yl)-1H-pyrrolo[3,2-c]pyridin-2-yl)-1H-pyrazolo[4,3-b]pyridin-5-yl)pyridin-3-amine] | 5.4 | – | – |
| > 10000 | 3940 | – | CC(C)CC(=O)Nc1cncc(-c2ccc3[nH]nc(-c4cc5c(N6CCN(C)CC6)nccc5[nH]4)c3n2)c1 [Compound 226, 3-Methyl-N-(5-(3-(4-(4-methylpiperazin-1-yl)-1H-pyrrolo[3,2-c]pyridin-2-yl)-1H-pyrazolo[4,3-b]pyridin-5-yl)pyridin-3-yl)butanamide] | 37.8 | – | – |
| > 10000 | > 10000 | – | CN1CCN(c2nccc3[nH]c(-c4n[nH]c5ccc(-c6cncc(NC(=O)c7ccccc7)c6)nc45)cc23)CC1 [Compound 235, N-(5-(3-(4-(4-Methylpiperazin-1l-yl)-1H-pyrrolo[3,2-c]pyridin-2-yl)-1H-pyrazolo[4,3-b]pyridin-5-yl)pyridin-3-yl)benzamide] | 29.1 | – | 49.1 |
| 2820 | > 10000 | – | c1csc(-c2nccc3[nH]c(-c4n[nH]c5ccc(-c6ccncc6)nc45)cc23)c1 [Compound 354, 5-(Pyridin-4-yl)-3-(4-(thiophen-2-yl)-1H-pyrrolo[3,2-c]pyridin-2-yl)-1H-pyrazolo[4,3-b]pyridine] | – | – | 33.6 |
| 1360 | 4410 | – | Fc1cccc(-c2nccc3[nH]c(-c4n[nH]c5ccc(-c6cncc(OCc7ccccc7)c6)nc45)cc23)c1 [Compound 518, 5-(5-(Benzyloxy)pyridin-3-yl)-3-(4-(3-fluorophenyl)-1H-pyrrolo[3,2-c]pyridin-2-yl)-1H-pyrazolo[4,3-b]pyridine] | – | – | – |
| > 10000 | > 10000 | – | CN1CCN(c2nccc3[nH]c(-c4n[nH]c5ccc(-c6cncc(NC(=O)CC7CCNCC7)c6)nc45)cc23)CC1 [Compound 641, N-(5-(3-(4-(4-Methylpiperazin-1l-yl)-1H-pyrrolo[3,2-c]pyridin-2-yl)-1H-pyrazolo[4,3-b]pyridin-5-yl)pyridin-3-yl)-2-(piperidin-4-yl)acetamide] | 16.3 | – | 2.1 |
